Data reported in US20200253196A1, “SOLVENTS FOR AGRICULTURAL APPLICATIONS AND PESTICIDE FORMULATIONS” (priority 2017, published 2020).

Test: Solubility of pesticides in solvents (pesticide powder added in 2% stepwise increments)
Type: physicochemical
Settings: for Dissolving ability of Comparative Solvent B compared with Inventive Solvent 1: comparison Solvesso 150 vs ethyl 3-ethoxypropionate; for Dissolving ability of Comparative Solvent B compared with Inventive Solvent 1 / Dissolving ability of Comparative Solvent A compared with Inventive Solvent 1: in words; for Dissolving ability of Comparative Solvent A compared with Inventive Solvent 1: comparison xylene vs ethyl 3-ethoxypropionate; for Solubility in Comparative Solvent B: solvent Solvesso 150; for Solubility in Comparative Solvent B / Solubility in Inventive Solvent 1 / Solubility in Comparative Solvent A: concentration just prior to the one where the powder is not dissolved, no more than 2% lower than actual solubility; for Solubility in Inventive Solvent 1: solvent ethyl 3-ethoxypropionate; for Solubility in Comparative Solvent A: solvent xylene
Procedure: The solubility of various pesticides in these solvents are evaluated.
Each pesticide powder is added by solvent in 2% stepwise increments to the final pesticide concentration. Each pesticide reaches a concentration where the pesticide powder is not dissolved by the solvent.

Cc1c(COC(=O)[C@@H]2[C@H](/C=C(\Cl)C(F)(F)F)C2(C)C)cccc1-c1ccccc1 (racemic) [Bifenthrin]
Dissolving ability of Comparative Solvent B compared with Inventive Solvent 1: comparable dissolving ability | Dissolving ability of Comparative Solvent A compared with Inventive Solvent 1: stronger dissolving ability | Solubility in Comparative Solvent B: 44 weight % | Solubility in Inventive Solvent 1: 43 weight % | Solubility in Comparative Solvent A: 45 weight %

CC(C)N1C(=O)N(c2ccccc2)CS/C1=N\C(C)(C)C [Buprofezin]
Dissolving ability of Comparative Solvent B compared with Inventive Solvent 1: comparable dissolving ability | Solubility in Comparative Solvent B: 16 weight % | Solubility in Inventive Solvent 1: 18 weight % | Solubility in Comparative Solvent A: 10 weight %

CCOP(=S)(OCC)Oc1nc(Cl)c(Cl)cc1Cl [Chlopyrifos]
Dissolving ability of Comparative Solvent A compared with Inventive Solvent 1: stronger dissolving ability | Solubility in Comparative Solvent B: 54 weight % | Solubility in Inventive Solvent 1: 63 weight % | Solubility in Comparative Solvent A: 70 weight %

CCCCC(C#N)(Cn1cncn1)c1ccc(Cl)cc1 (stereo not shown) [Myclobutanil]
Solubility in Comparative Solvent B: 23 weight % | Solubility in Inventive Solvent 1: 39 weight % | Solubility in Comparative Solvent A: 27 weight %

COC(=O)N(OC)c1ccccc1COc1ccn(-c2ccc(Cl)cc2)n1 [Pyraclostrobin]
Solubility in Comparative Solvent B: 31 weight % | Solubility in Inventive Solvent 1: 47 weight % | Solubility in Comparative Solvent A: 42 weight %

CC(C)(C)C(O)(CCc1ccc(Cl)cc1)Cn1cncn1 (stereo not shown) [Tebuconazole]
Solubility in Comparative Solvent B: 2.0 weight % | Solubility in Inventive Solvent 1: 16 weight % | Solubility in Comparative Solvent A: 4.0 weight %

CC(C)(C)C(=O)C(Oc1ccc(Cl)cc1)n1cncn1 (stereo not shown) [Triazolone]
Solubility in Comparative Solvent B: 12 weight % | Solubility in Inventive Solvent 1: 32 weight % | Solubility in Comparative Solvent A: 23 weight %
